The source made the active and inactive calls. No cut-off for these calls is given here.
Key:
[1] = Inhibition of [125I] Ang2 binding to AT1 receptor in Sprague-Dawley rat VSMC after 150 mins by gamma-counter method
Rattus norvegicus [2] = assay: […] activity in spontaneous hypertensive rat assessed as reduction in blood pressure at 5 to 10 mg/kg, po; format: functional, organism-based
Rattus norvegicus [3] = assay: […] activity in spontaneous hypertensive rat assessed as reduction in blood pressure at 10 mg/kg, po; format: functional, organism-based
Rattus norvegicus [4] = assay: […] activity in spontaneous hypertensive rat assessed as maximum reducing response of mean blood pressure at 10 mg/kg, po; format: functional
Rattus norvegicus [5] = assay: […] activity in spontaneous hypertensive rat at 10 mg/kg, po after 24 hrs; format: functional, organism-based

| Compound | IC50 [1] [nM] | Ki [1] [nM] | Activity (Rattus norvegicus [2]) | Activity (Rattus norvegicus [3]) | Activity (Rattus norvegicus [4]) [mmHg] | Activity (Rattus norvegicus [5]) |
| --- | --- | --- | --- | --- | --- | --- |
| CCCCc1nc2c(C)cc(C(=O)NCCc3ccccc3)cc2n1Cc1cccc2c1ccn2-c1ccccc1C(=O)O | 8.5 | 6.2 |  |  |  |  |
| CCc1nc2c(C)cc(C(=O)NCCc3ccccc3)cc2n1Cc1cccc2c1ccn2-c1ccccc1C(=O)O | 4.8 | 3.5 |  |  |  |  |
| CCc1nc2c(C)cc(C(=O)NCCc3ccccc3)cc2n1Cc1ccc2c(ccn2-c2ccccc2C(=O)O)c1 | 12.1 | 8.8 |  |  |  |  |
| CCCCc1nc2c(C)cc(C(=O)NCCc3ccccc3)cc2n1Cc1ccc2c(ccn2-c2ccccc2C(=O)O)c1 | 3.7 | 2.7 | Active |  |  |  |
| CCCCc1nc(Cl)c(CO)n1Cc1ccc(-c2ccccc2-c2nnn[nH]2)cc1 [LOSARTAN] | 14.6 | 10.5 |  | Active |  |  |
| CCCc1nc2c(C)cc(C(=O)NCCc3ccccc3)cc2n1Cc1cccc2c1ccn2-c1ccccc1C(=O)O | 2.3 | 1.7 | Active |  | 57.6 | Active |
| CCCc1nc2c(C)cc(C(=O)NCCc3ccccc3)cc2n1Cc1ccc2c(ccn2-c2ccccc2C(=O)O)c1 | 2.6 | 1.9 | Active |  | 57.9 | Active |

Source: ChEMBL document CHEMBL4376813, “Design, synthesis and biological evaluation of AT1 receptor blockers derived from 6-substituted aminocarbonyl benzimidazoles” (Eur J Med Chem, 2019)
